According to patent publication US20230120597A1, “CO-AGONISTS AT GLP-1 AND GIP RECEPTORS SUITABLE FOR ORAL DELIVERY” (Novo Nordisk A/S, priority 2020, published 2023):
Where two headings read alike, the source gives them in different places. Starred links: 1 amine or outer side, 2 acyl side, 3 side chain; linkers in the order of their positions; H or OH if unused. Non-standard residues stand in square brackets, D forms with d. Residues, ends and D or L forms follow the SMILES beside them. Groups on a side chain read outwards from the residue. *: point of attachment. C18 diacid = O=C(O)CCCCCCCCCCCCCCCCC(=O)*; γGlu = O=C(O)[C@H](CCC(=O)[*:2])N[*:1]; εLys = N[C@@H](CCCCN[*:1])C(=O)[*:2]; AEEA = NCCOCCOCC(=O)O; Aib = CC(C)(N)C(=O)O

How the values were obtained:
human GLP-1 receptor = molecular target: T1, human GLP-1 receptor (Homo sapiens, UniProt P43220); assay: In vitro functional potency, CRE luciferase reporter gene assay, whole BHK cells expressing hGLP-1R; type: cell-based; conditions: BHK CRE luc2P hGLP-1R cells
T1 construct: expressed in transfected cells; host or cells: BHK (parent line BHKTS13), clone BHK CRE luc2P hGLP-1R
Method: (§1) The in vitro functional potency is the measure of target receptor activation in a whole cell assay.
(§2) In vitro functional potency was determined by measuring the response of the target receptor in a reporter gene assay in individual cell lines. […] When the respective receptor is activated, it results in the production of cAMP, which in turn results in expression of the luciferase protein. When assay incubation is completed, luciferase substrate (luciferin) is added resulting in the enzymatic conversion of luciferin to oxyluciferin and producing bioluminescence. The luminescence is measured as the readout for the assay.
(§3) The cells lines used in these assays were BHK cells with BHKTS13 as a parent cell line. The cell lines were derived from a clone containing the CRE luciferase element and were established by further transfection with the respective human receptor to obtain the relevant cell line: BHK CRE luc2P hGLP-1R or BHK CRE luc2P hGIPR. The cells were cultured at 37° C. with 5% CO2 in Cell Culture Medium. They were aliquoted and stored in liquid nitrogen. The cells were kept in continuous culture and were seeded out the day before each assay.
(§4) GLP-1R Cell Culture Medium consisted of DMEM medium with 10% FBS, 500 μg/mL G418, and 300 μg/mL hygromycin. GIPR Cell Culture Medium consisted of DMEM medium with 10% FBS, 400 μg/mL G418, and 300 μg/mL hygromycin. Assay Buffer consisted of DMEM w/o phenol red, 10 mM Hepes, 1× Glutamax. 1% ovalbumin, and 0.1% Pluronic F-68 with the addition of HSA at twice the final assay concentration.
(§5) Procedure • 1) Cells were plated at 5000 cells/well and incubated overnight in the assay plate. • 2) Cells were washed once in DPBS. • 3) Stocks of the test compounds and reference compounds in concentrations ranging from […] were diluted 1:150 in Assay Buffer. Compounds were then diluted 1:10 in column 1 of a 96 deep well dilution plate and then carried across the row creating a 3.5 fold, 12 point dilution curve. • 4) Assay Buffer (50 μl aliquot) with or without HSA was added to each well in the assay plate. • 5) A 50 μl aliquot of compound or blank was transferred from the dilution plate to the assay plate containing the Assay Buffer with or without HSA. • 6) The assay plate was incubated for 3 h in a 5% CO2 incubator at 37° C. • 7) The cells were washed once with DPBS. • 8) A 100 μl aliquot of DPBS was added to each well of the assay plate. • 9) A 100 μl aliquot of steadylite plus reagent (light sensitive) was added to each well of the assay plate. • 10) Each assay plate was covered with aluminum foil to protect it from light and shaken at 250 RPM for 30 min at room temperature. • 11) Each assay plate was read in a microtiter plate reader.
(§6) The data from the microtiter plate reader was first regressed in an Excel in order to calculate the x-axis, log scale concentrations based on the individual test compound's stock concentration and the dilutions of the assay. […] The software performs a non-linear regression (log(agonist) vs response). A minimum of two replicates was measured for each sample. The reported values are averages of the replicates.

human GIP receptor = molecular target: T2, human GIP receptor (Homo sapiens, UniProt P48546); assay: In vitro functional potency, CRE luciferase reporter gene assay, whole BHK cells expressing hGIPR; type: cell-based; conditions: BHK CRE luc2P hGIPR cells
T2 construct: expressed in transfected cells; host or cells: BHK (parent line BHKTS13), clone BHK CRE luc2P hGIPR
T2 sequence (P48546 22-466): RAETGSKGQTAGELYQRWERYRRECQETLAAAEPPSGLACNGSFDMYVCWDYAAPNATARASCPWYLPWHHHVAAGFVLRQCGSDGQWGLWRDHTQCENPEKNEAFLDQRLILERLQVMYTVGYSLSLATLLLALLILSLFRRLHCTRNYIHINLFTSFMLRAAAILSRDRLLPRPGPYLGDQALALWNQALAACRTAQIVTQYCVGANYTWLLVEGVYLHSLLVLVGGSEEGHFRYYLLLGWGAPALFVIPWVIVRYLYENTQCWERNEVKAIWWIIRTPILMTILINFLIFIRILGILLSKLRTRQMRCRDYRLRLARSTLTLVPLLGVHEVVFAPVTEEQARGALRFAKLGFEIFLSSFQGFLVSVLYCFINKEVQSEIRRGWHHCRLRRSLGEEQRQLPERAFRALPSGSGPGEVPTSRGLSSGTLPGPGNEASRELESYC
Method: as §1, §2, §3, §4, §5, §6

[1] = 0% HSA, read-out: hGLP-1R, CRE Luc 0% HSA EC50
[2] = hGLP-1R, CRE Luc 1% HSA EC50, 1% HSA
[3] = 0% HSA, read-out: hGIPR, CRE Luc 0% HSA EC50
[4] = hGIPR, CRE Luc 1% HSA EC50, 1% HSA

T1 sequence (P43220 24-463): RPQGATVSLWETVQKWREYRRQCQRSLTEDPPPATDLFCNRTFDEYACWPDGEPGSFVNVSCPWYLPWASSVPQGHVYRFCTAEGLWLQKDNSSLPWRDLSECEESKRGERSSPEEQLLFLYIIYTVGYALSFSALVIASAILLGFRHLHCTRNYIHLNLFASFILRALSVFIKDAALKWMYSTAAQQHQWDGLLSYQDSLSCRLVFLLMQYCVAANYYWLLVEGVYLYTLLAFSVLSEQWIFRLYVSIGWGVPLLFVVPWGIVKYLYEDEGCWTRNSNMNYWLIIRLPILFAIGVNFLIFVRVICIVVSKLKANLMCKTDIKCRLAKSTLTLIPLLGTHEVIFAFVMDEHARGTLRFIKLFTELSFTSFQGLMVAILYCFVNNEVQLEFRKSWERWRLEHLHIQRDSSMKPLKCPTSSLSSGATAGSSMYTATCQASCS

Compound	EC50 (human GLP-1 receptor; [1]) [pM]	EC50 (human GLP-1 receptor; [2]) [pM]	EC50 (human GIP receptor; [3]) [pM]	EC50 (human GIP receptor; [4]) [pM]
CC(C)C[C@H](NC(=O)[C@H](CC(C)C)NC(=O)[C@H](Cc1c[nH]c2ccccc12)NC(=O)[C@H](CC(N)=O)NC(=O)[C@@H](NC(=O)[C@H](Cc1ccccc1)NC(=O)[C@H](C)NC(=O)[C@H](CCC(N)=O)NC(=O)[C@H](C)NC(=O)[C@H](C)NC(=O)[C@H](CCC(N)=O)NC(=O)[C@H](CCCCNC(=O)[C@@H](N)CCCCNC(=O)[C@@H](N)CCCCNC(=O)CC[C@H](NC(=O)CCCCCCCCCCCCCCCCC(=O)O)C(=O)O)NC(=O)[C@H](CCC(=O)O)NC(=O)[C@H](CC(C)C)NC(=O)[C@H](Cc1ccc(O)cc1)NC(=O)[C@H](Cc1ccc(O)cc1)NC(=O)[C@H](CO)NC(=O)[C@H](Cc1ccc(O)cc1)NC(=O)[C@H](CC(=O)O)NC(=O)[C@H](CO)NC(=O)[C@@H](NC(=O)[C@H](Cc1ccccc1)NC(=O)[C@@H](NC(=O)CNC(=O)[C@H](CCC(=O)O)NC(=O)C(C)(C)NC(=O)[C@@H](N)Cc1ccc(O)cc1)[C@@H](C)O)[C@@H](C)O)C(C)C)C(=O)N[C@@H](C)C(=O)NCC(=O)NCC(=O)N1CCC[C@H]1C(=O)N[C@@H](CO)C(=O)N[C@@H](CO)C(=O)NCC(=O)N[C@@H](C)C(=O)N1CCC[C@H]1C(=O)N1CCC[C@H]1C(=O)N1CCC[C@H]1C(=O)N[C@@H](CO)C(=O)O [Compound No. 5] (H-Y[Aib]EGTFTSDYSYYLEK([εLys-εLys-γGlu-C18 diacid])QAAQAFVNWLLAGGPSSGAPPPS-OH; N-terminus assumed)	9.4	625	14.2	362
CC[C@H](C)[C@H](NC(=O)[C@H](CO)NC(=O)[C@H](Cc1ccc(O)cc1)NC(=O)[C@H](CC(=O)O)NC(=O)[C@H](CO)NC(=O)[C@@H](NC(=O)[C@H](Cc1ccccc1)NC(=O)[C@@H](NC(=O)CNC(=O)[C@H](CCC(=O)O)NC(=O)C(C)(C)NC(=O)[C@@H](N)Cc1ccc(O)cc1)[C@@H](C)O)[C@@H](C)O)C(=O)N[C@@H](Cc1ccc(O)cc1)C(=O)N[C@@H](CC(C)C)C(=O)N[C@@H](CCC(=O)O)C(=O)N[C@@H](CCCCNC(=O)[C@@H](N)CCCCNC(=O)[C@@H](N)CCCCNC(=O)CC[C@H](NC(=O)CCCCCCCCCCCCCCCCC(=O)O)C(=O)O)C(=O)N[C@@H](CCC(N)=O)C(=O)N[C@@H](C)C(=O)N[C@@H](C)C(=O)N[C@@H](CCCNC(=N)N)C(=O)N[C@@H](CCC(=O)O)C(=O)N[C@@H](Cc1ccccc1)C(=O)N[C@H](C(=O)N[C@@H](CC(N)=O)C(=O)N[C@@H](Cc1c[nH]c2ccccc12)C(=O)N[C@@H](CC(C)C)C(=O)N[C@@H](CC(C)C)C(=O)N[C@@H](C)C(=O)NCC(=O)NCC(=O)N1CCC[C@H]1C(=O)N[C@@H](CO)C(=O)N[C@@H](CO)C(=O)NCC(=O)N[C@@H](C)C(=O)N1CCC[C@H]1C(=O)N1CCC[C@H]1C(=O)N1CCC[C@H]1C(=O)N[C@@H](CO)C(N)=O)C(C)C [Compound No. 6] (H-Y[Aib]EGTFTSDYSIYLEK([εLys-εLys-γGlu-C18 diacid])QAAREFVNWLLAGGPSSGAPPPS-NH2)	3.4	243	18.5	434
CC[C@H](C)[C@H](NC(=O)[C@H](CO)NC(=O)[C@H](Cc1ccc(O)cc1)NC(=O)[C@H](CC(=O)O)NC(=O)[C@H](CO)NC(=O)[C@@H](NC(=O)[C@H](Cc1ccccc1)NC(=O)[C@@H](NC(=O)CNC(=O)[C@H](CCC(=O)O)NC(=O)C(C)(C)NC(=O)[C@@H](N)Cc1ccc(O)cc1)[C@@H](C)O)[C@@H](C)O)C(=O)N[C@@H](Cc1ccc(O)cc1)C(=O)N[C@@H](CC(C)C)C(=O)N[C@@H](CCC(=O)O)C(=O)N[C@@H](CCCCNC(=O)COCCOCCNC(=O)COCCOCCNC(=O)CC[C@H](NC(=O)CCCCCCCCCCCCCCCCC(=O)O)C(=O)O)C(=O)N[C@@H](CCC(N)=O)C(=O)N[C@@H](C)C(=O)N[C@@H](C)C(=O)N[C@@H](CCCNC(=N)N)C(=O)N[C@@H](CCC(=O)O)C(=O)N[C@@H](Cc1ccccc1)C(=O)N[C@H](C(=O)N[C@@H](CC(N)=O)C(=O)N[C@@H](Cc1c[nH]c2ccccc12)C(=O)N[C@@H](CC(C)C)C(=O)N[C@@H](CC(C)C)C(=O)N[C@@H](C)C(=O)NCC(=O)NCC(=O)N1CCC[C@H]1C(=O)N[C@@H](CO)C(=O)N[C@@H](CO)C(=O)NCC(=O)N[C@@H](C)C(=O)N1CCC[C@H]1C(=O)N1CCC[C@H]1C(=O)N1CCC[C@H]1C(=O)N[C@@H](CO)C(N)=O)C(C)C [Compound No. 7] (H-Y[Aib]EGTFTSDYSIYLEK([AEEA-AEEA-γGlu-C18 diacid])QAAREFVNWLLAGGPSSGAPPPS-NH2)	4.2	513	28.7	687
CC[C@H](C)[C@H](NC(=O)[C@H](Cc1ccccc1)NC(=O)[C@H](CCC(=O)O)NC(=O)[C@H](CCCNC(=N)N)NC(=O)[C@H](C)NC(=O)[C@H](C)NC(=O)[C@H](CCC(N)=O)NC(=O)[C@H](CCCCNC(=O)[C@@H](N)CCCCNC(=O)[C@@H](N)CCCCNC(=O)CC[C@H](NC(=O)CCCCCCCCCCCCCCCCC(=O)O)C(=O)O)NC(=O)[C@H](CCC(=O)O)NC(=O)[C@H](CC(C)C)NC(=O)[C@H](Cc1ccc(O)cc1)NC(=O)[C@@H](NC(=O)[C@H](CO)NC(=O)[C@H](Cc1ccc(O)cc1)NC(=O)[C@H](CC(=O)O)NC(=O)[C@H](CO)NC(=O)[C@@H](NC(=O)[C@H](Cc1ccccc1)NC(=O)[C@@H](NC(=O)CNC(=O)[C@H](CCC(=O)O)NC(=O)C(C)(C)NC(=O)[C@@H](N)Cc1ccc(O)cc1)[C@@H](C)O)[C@@H](C)O)[C@@H](C)CC)C(=O)N[C@@H](CC(N)=O)C(=O)N[C@@H](Cc1c[nH]c2ccccc12)C(=O)N[C@@H](CC(C)C)C(=O)N[C@@H](CC(C)C)C(=O)N[C@@H](C)C(=O)NCC(=O)NCC(=O)N1CCC[C@H]1C(=O)N[C@@H](CO)C(=O)N[C@@H](CO)C(=O)NCC(=O)N[C@@H](C)C(=O)N1CCC[C@H]1C(=O)N1CCC[C@H]1C(=O)N1CCC[C@H]1C(=O)N[C@@H](CO)C(N)=O [Compound No. 8] (H-Y[Aib]EGTFTSDYSIYLEK([εLys-εLys-γGlu-C18 diacid])QAAREFINWLLAGGPSSGAPPPS-NH2)	2.3	82.1	6.7	191
